One assay relates to CFA-induced hyperalgesia. The experiment in a line: Established rat hyperalgesia model (CFA). The settings on record: gavage. The format is in vivo. The protocol:
f) Established Rat Hyperalgesia Model
Naïve withdrawal thresholds of both hind paws were determined by using an increasing pressure stimulus placed onto the dorsal surface of each paw using an analgesymeter. Delayed inflammatory pain was then induced by intra-plantar injection of 25 μl of complete Freund's adjuvant (CFA) into one hindpaw with the contralateral paw acting as the control. […] One hour later, paw withdrawal thresholds were re-measured on both the ipsilateral (CFA-injected) and contralateral (uninjected) paw; measurements were repeated at 3 hrs and 6 hrs post dosing. The reversal of hyperalgesia was calculated using the following formula: Reversal (%)=100×(postdose ipsilateral threshold−predose ipsilateral threshold) (naïve ipsilateral threshold−predose ipsilateral threshold).

Assay [1] deals with antigen-induced arthritis (knee swelling). The experiment in a line: Rat antigen-induced arthritis model. The format is in vivo. The conditions noted are these: oral gavage, AUC of R/L knee swelling ratio vs control. The protocol: e) GPR4 Activity in Rat Antigen-induced Arthritis Model Female Lewis rats were sensitised intradermally on the back at two sites to methylated bovine serum albumin (mBSA) homogenised 1:1 with complete Freund's adjuvant on days −21 and −14 (0.1 ml containing 1 mg/ml mBSA). On day 0, the right knee received […] of 10 mg/ml mBSA in 5% glucose solution (antigen injected knee), while the left knee received […] of 5% glucose solution alone (vehicle injected knee). The diameters of the left and right knees were then measured using calipers immediately after the intra-articular injections and again on days 2, 4 and 7. The compounds of the invention were administered twice daily by oral gavage; vehicle (saline) at 5 ml/kg, and dexamethasone at 0.3 mg/kg was given as a control. Right knee swelling was calculated as a ratio of left knee swelling, and the R/L knee swelling ratio plotted against time to give Area Under the Curve (AUC) graphs for control and treatment groups. The percentage inhibition of the individual treatment group AUCs were calculated vs the control group AUC (0% inhibition).

For assay [2], the target named is T1, human GPR4 (Homo sapiens (Human), UniProt P46093). As to the kind of experiment: Human GPR4 binding assay with additional human serum albumin (4% HSA). The settings on record: binding assay with 4% HSA. The protocol:
(§1) Cells were grown in T175 flasks to a density of about 1×10^6 cells/mL in growth medium. The cells were harvested by centrifugation (3000 rpm for 30 minutes at 4° C.) and the pellet resuspended in ice cold buffer A (20 mM HEPES pH 7.8, 10 mM EDTA, 100 mM NaCl, 1 tab/40 mL protease inhibitor complete). […] The homogenate was centrifuged at 18000 rpm for 50 min at 4° C. and the membrane protein pellet resuspended in cold buffer A using the Polytron (2×20 seconds). The protein concentration is determined using the Bio Rad Protein Assay and human IgG as standard. The volume of the membrane protein suspension is adjusted to a final concentration of about 2 mg protein/mL. The suspension is then once again homogenized (Polytron) on ice at 25000 rpm for 20 seconds before being aliquoted and stored at −80° C.
(§2) Radio Ligand Binding Assay: Serial dilutions of compounds (stock in 10 mM DMSO) are prepared by first diluting the compounds in DMSO followed by a 1:50 dilution into assay buffer (10 mM HEPES, pH 8.0, 100 mM NaCl, 5 mM MgCl2, 1 mM CaCl2, 0.5% fatty acid-free BSA, 0.05% Tween-20). […] The desired amount of membranes (20 μg/well) is diluted with assay buffer. […] 100 μL of the membrane-suspension is added and the plate stirred for 60 minutes. […] The filter plate is washed 5 times with ice-cold wash buffer, dried and sealed at the bottom. Then 20 μL of Microscint 40 is added into each well and the top of the plate is sealed. Finally the plate is counted for 2 min/well in a TopCount NXT instrument (Packard Instruments). The data are analyzed using the GraphPad Prism™ software.
In a similar manner, a binding assay with additional human serum albumin (4% HSA) has been established.

The next assay concerns the target mouse GPR4 (Mus musculus (Mouse), UniProt Q8BUD0). As to the kind of experiment: Mouse GPR4 cAMP assay. The class given is cell-based. The protocol: (§3) HeLa cells stably expressing human GPR4 were established by transfecting the cells with a construct containing the human GPR4 coding sequence. The cells were grown in Dulbecco's Modified Eagle Medium (DMEM)/HAM's tissue culture medium F12 (HAM's F12) supplemented with 10% fetal calf serum (FCS), 100 u/ml penicillin, 100 μg/ml streptomycin and 400 μg/ml G418 and 10 mM Hepes pH 8.0. pH-induced formation of cAMP was determined using the homogeneous time resolved fluorescence (HTRF) technology as provided by CisBio Inc. The cells were seeded in 384-well plates and cultured for 24 hours at 37° C., 5% CO2 before performing the assay. Medium was removed and 10 μl buffer A (Hepes buffered saline (HBS), 10 mM Hepes, pH 8, 2 mM 3-Isobutyl-1-methylxanthin (IBMX)) was added. For compound testing, buffer A with 2× concentrated compounds was used. Cells were incubated for 15 min at room temperature. 10 μl buffer B (HBS, 30 mM Hepes, specific pH) was added to reach the appropriate final pH for stimulation (see below) and incubation was continued for 15 min at room temperature. […] HBS: 130 mM NaCl, 0.9 mM NaH2 PO4, 5.4 mM KCl, 0.8 mM MgSO4, CaCl2 1.8 mM, 25 mM glucose, 10-30 mM Hepes. Adjustment of HBS buffers:
(§4) Compounds were diluted from fresh stock solutions at 10 mM in DMSO to 2 mM and then used for serial dilutions in DMSO.
(§5) In a similar manner, assays for the mouse (m) and rat (r) GPR4 receptors have been established.

The target in assay [3] is T1, human GPR4. As to the kind of experiment: Human GPR4 binding assay ([3H]4 radioligand, membranes of 300.19 cells expressing human GPR4). The procedure: a) Human GPR4 Binding Assay
as §1, §2

The target in assay [4] is T1, human GPR4. The experiment in a line: Cell-based assay for human GPR4 activity (pH-induced cAMP formation, HTRF, HeLa cells). The settings on record: HeLa cells stably expressing human GPR4, pH-induced cAMP. The procedure:
b) Cell-Based Assay for Human GPR4 Activity
as §3, §4

Another assay deals with rat GPR4 (Rattus norvegicus (Rat), UniProt Q4KLH9). As to the kind of experiment: Rat GPR4 cAMP assay. The format is cell-based. The settings on record: read-out: r cAMP IC50. The protocol: as §3, §4, §5
For orientation: Cyclic AMP is a second messenger, typically raised through Gs and lowered through Gi signalling.

The next assay addresses Human H3 (Homo sapiens (Human), UniProt Q9Y5N1). As to the kind of experiment: Human H3 binding assay (SPA, [3H]-R-alpha-Methylhistamine). The settings on record: 3 nM [3H]-R-alpha-Methylhistamine. The protocol:
c) Human H3 Binding Assay
The Scintillation Proximity Binding Assay (SPA) assay was performed in a final volume of 50 μL per well in a 384-well polystyrene plate.
The final concentration of the radioligand was 3 nM. • 20 μL of a beads (PVT-WGA type A) and membranes mixed suspension in assay buffer, in order to get a final concentration of 10 μg/well of membranes and 200 μg/well of beads. As an example, 1471 μL membranes (Conc.: 5.1 mg/mL) and 1500 μL of bead suspension (Conc.: 100 mg/mL) are diluted to a final volume of 15 mL of assay buffer.
The plates were sealed and shaken at room temperature, then allowed to stand at room temperature for at least 1 hour. The plates were counted using a Perkin Elmer TopCount reader, each well being counted for 1 minute.

The mark [5] stands for this setting: radioligand [3H]4 (example 39), membranes of 300.19 cells expressing human GPR4.

Each structure is given as a SMILES string. Bounds are passed on as bounds.

T1 sequence (P46093 whole entry): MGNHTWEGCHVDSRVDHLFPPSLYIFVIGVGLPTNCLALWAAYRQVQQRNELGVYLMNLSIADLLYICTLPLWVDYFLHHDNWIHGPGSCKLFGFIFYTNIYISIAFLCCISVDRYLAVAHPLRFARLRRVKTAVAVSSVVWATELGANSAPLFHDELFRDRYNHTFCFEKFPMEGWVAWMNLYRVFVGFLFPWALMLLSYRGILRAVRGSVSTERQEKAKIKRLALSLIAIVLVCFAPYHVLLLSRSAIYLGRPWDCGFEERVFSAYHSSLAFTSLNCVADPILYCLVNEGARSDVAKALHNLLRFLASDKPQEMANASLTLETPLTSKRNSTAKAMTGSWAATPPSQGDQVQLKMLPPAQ
rat GPR4, sequence (Q4KLH9 whole entry): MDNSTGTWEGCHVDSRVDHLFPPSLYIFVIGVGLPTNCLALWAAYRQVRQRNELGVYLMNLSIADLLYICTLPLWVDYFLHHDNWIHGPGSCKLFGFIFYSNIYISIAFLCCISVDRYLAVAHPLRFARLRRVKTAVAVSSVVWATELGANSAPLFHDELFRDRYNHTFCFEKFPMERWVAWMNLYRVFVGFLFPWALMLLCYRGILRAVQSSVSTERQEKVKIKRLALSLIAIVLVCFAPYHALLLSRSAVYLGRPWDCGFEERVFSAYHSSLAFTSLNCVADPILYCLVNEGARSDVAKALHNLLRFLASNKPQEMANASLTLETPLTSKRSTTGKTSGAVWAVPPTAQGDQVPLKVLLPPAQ
mouse GPR4, sequence (Q8BUD0 whole entry): as the sequence (Q4KLH9 whole entry) above, with W8G, R51H, T339S counted along it
Human H3, sequence (Q9Y5N1 whole entry): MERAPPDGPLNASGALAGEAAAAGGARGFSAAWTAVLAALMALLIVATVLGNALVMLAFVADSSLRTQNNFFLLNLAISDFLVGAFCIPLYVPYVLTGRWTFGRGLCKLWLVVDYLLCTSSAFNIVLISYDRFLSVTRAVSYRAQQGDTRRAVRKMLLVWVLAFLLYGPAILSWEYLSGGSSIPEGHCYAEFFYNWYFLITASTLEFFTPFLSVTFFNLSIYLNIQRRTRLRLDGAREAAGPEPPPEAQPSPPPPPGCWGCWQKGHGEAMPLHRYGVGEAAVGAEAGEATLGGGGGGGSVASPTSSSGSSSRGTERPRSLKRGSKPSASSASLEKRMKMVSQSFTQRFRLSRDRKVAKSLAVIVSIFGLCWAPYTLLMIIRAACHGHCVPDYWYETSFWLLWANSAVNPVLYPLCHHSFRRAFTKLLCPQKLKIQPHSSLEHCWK

As to `CCc1nn2c(C)cc(C)nc2c1Cc1ccc(/C=C/CN2CCN(C[C@@H](O)CO)CC2)cc1.Cl.Cl` [Example 17, (R)-3-(4-{(E)-3-[4-(2-Ethyl-5,7-dimethyl-pyrazolo[1,5-a]pyrimidin-3-ylmethyl)-phenyl]-allyl}-piperazin-1-yl)-propane-1,2-diol dihydrochloride], the “% reversal of hyperalgesia” value in the assay on CFA-induced hyperalgesia (3 mg/kg, 1 h) amounted to 28%; with CFA-induced hyperalgesia (3 mg/kg, 3 h), 18%; with CFA-induced hyperalgesia (3 mg/kg, 6 h), 3%; in the assay with CFA-induced hyperalgesia (10 mg/kg, 1 h) it was 36%; in the assay with CFA-induced hyperalgesia (10 mg/kg, 3 h), 29%; with CFA-induced hyperalgesia (10 mg/kg, 6 h), 7%. The “% reversal of hyperalgesia” value in the assay on CFA-induced hyperalgesia (30 mg/kg, 1 h) turned out to be 55%; in the assay with CFA-induced hyperalgesia (30 mg/kg, 3 h), 32%; in the assay on CFA-induced hyperalgesia (30 mg/kg, 6 h), 15%. Further, the Inhibition of swelling in assay [1] (30 mg/kg bid) worked out at 36%.
The IC50 is the point on the concentration scale where inhibition reaches its midpoint. Take `CCc1nn2c(C)cc(C)nc2c1Cc1ccc(-n2cc(CN3CC(O)C3)cn2)cc1` [Example 28, 1-{1-[4-(2-Ethyl-5,7-dimethyl-pyrazolo[1,5-a]pyrimidin-3-ylmethyl)-phenyl]-1H-pyrazol-4-ylmethyl}-azetidin-3-ol]: the 50% inhibitory concentration (IC50) at human GPR4 [2] was 180 nM; at mouse GPR4, 687 nM; on human GPR4 [3] (setting [5]), 118 nM; on human GPR4 [4], 49 nM; at rat GPR4, 2300 nM; at Human H3 it was 20000 nM. The Inhibition of swelling in assay [1] (90 mg/kg bid) was determined as 25%.
On to `CCc1nn2c(C)cc(C)nc2c1Cc1ccc(-n2cc(CN3CC(N)C3)cn2)cc1` [Example 29, 1-{1-[4-(2-Ethyl-5,7-dimethyl-pyrazolo[1,5-a]pyrimidin-3-ylmethyl)-phenyl]-1H-pyrazol-4-ylmethyl}-azetidin-3-ylamine], for which the 50% inhibitory concentration (IC50) at human GPR4 [2] is 30 nM; against mouse GPR4 it was 211 nM; on human GPR4 [3] (setting [5]) it was 21 nM; against human GPR4 [4] it was 36 nM; on rat GPR4 it was 430 nM; on Human H3, greater than 30000 nM.
In the case of `CCc1nn2c(C)cc(C)nc2c1Cc1ccc(-n2cc(CN3CCNCC3)cn2)cc1` [Example 31, 2-Ethyl-5,7-dimethyl-3-[4-(4-piperazin-1-ylmethyl-pyrazol-1-yl)-benzyl]-pyrazolo[1,5-a]pyrimidine], the 50% inhibitory concentration (IC50) on human GPR4 [2] is 61 nM; against mouse GPR4, 511 nM; on human GPR4 [3] (setting [5]) it was 43 nM; against human GPR4 [4], 53 nM; on rat GPR4, 1330 nM; on Human H3 it was greater than 30000 nM. Also, the Inhibition of swelling in assay [1] (30 mg/kg bid) stood at 24%; in assay [1] (60 mg/kg bid), 38%.
Take `CCc1nn2c(C)cc(C)nc2c1Cc1ccc(OC[C@H]2CC[C@@H](N)CC2)cc1` [Example 23, 4-[4-(2-Ethyl-5,7-dimethyl-pyrazolo[1,5-a]pyrimidin-3-ylmethyl)-phenoxymethyl]-cyclohexylamine]: the IC50 on human GPR4 [2] is 19 nM; against mouse GPR4 it was 262 nM; on human GPR4 [4] it was 21 nM; at rat GPR4, 1410 nM; at Human H3, greater than 30000 nM. Also, in assay [1] (30 mg/kg bid), the Inhibition of swelling is given as 24%.
In the case of `CCc1nn2c(C)cc(C)nc2c1Cc1ccc(/C=C/CN2CCN(C(=O)[C@H](CO)NC)CC2)cc1` [Example 15, (S)-1-(4-{(E)-3-[4-(2-Ethyl-5,7-dimethyl-pyrazolo[1,5-a]pyrimidin-3-ylmethyl)-phenyl]-allyl}-piperazin-1-yl)-3-hydroxy-2-methylamino-propan-1-one], the IC50 at human GPR4 [2] was determined as 44 nM; against mouse GPR4, 216 nM; on human GPR4 [3] (setting [5]), 51 nM; on human GPR4 [4], 56 nM; at rat GPR4, 634 nM; on Human H3 it was 26000 nM.
Regarding `CCc1nn2c(C)cc(C)nc2c1Cc1ccc(-c2nnc([C@H]3CC[C@H](N)CC3)o2)cc1` [Example 36, 4-{5-[4-(2-Ethyl-5,7-dimethyl-pyrazolo[1,5-a]pyrimidin-3-ylmethyl)-phenyl]-[1,3,4]oxadiazol-2-yl}-cyclohexylamine], the concentration for half-maximal inhibition (IC50) was 17 nM at human GPR4 [2]; 284 nM against mouse GPR4; 5 nM at human GPR4 [3] (setting [5]); 51 nM on human GPR4 [4]; 2290 nM on rat GPR4; greater than 30000 nM at Human H3.
For the molecule `CCc1nn2c(C)cc(C)nc2c1Cc1ccc(/C=C/C[C@]2(O)CCN[C@@H](C)C2)cc1` [Example 5, (2S,4S)-4-{(E)-3-[4-(2-Ethyl-5,7-dimethyl-pyrazolo[1,5-a]pyrimidin-3-ylmethyl)-phenyl]-allyl}-2-methyl-piperidin-4-ol], the IC50 is 11 nM at human GPR4 [2]; 70 nM against mouse GPR4; 15 nM on human GPR4 [3] (setting [5]); 17 nM against human GPR4 [4]; 162 nM at rat GPR4; greater than 30000 nM on Human H3.
Regarding `CCc1nn2c(C)cc(C)nc2c1Cc1ccc(-n2cc(CC3(O)CCNCC3)nn2)cc1` [Example 34, 4-{1-[4-(2-Ethyl-5,7-dimethyl-pyrazolo[1,5-a]pyrimidin-3-ylmethyl)-phenyl]-1H-[1,2,3]triazol-4-ylmethyl}-piperidin-4-ol], the IC50 is 78 nM on human GPR4 [2]; 534 nM against mouse GPR4; 77 nM at human GPR4 [3]; 58 nM against human GPR4 [4]; 1230 nM on rat GPR4; greater than 30000 nM at Human H3.

(Values after US8748435B2, “Pyrazolo pyrimidine derivatives” (Novartis AG, priority 2011, dated 2014).)
